From patent US11723886B2, “Targeting ocular diseases with novel APE1/Ref-1 inhibitors” (Indiana University Research and Technology Corporation, priority 2018, dated 2023) come the findings set out here.

Data set [1] relates to Rf/6a macaque choroidal endothelial cells. Kind of data set: In vitro cell proliferation assay (alamarBlue), Rf/6a. Particulars: Macaca mulatta, Rf/6a choroidal endothelial cells, read-out: GI50 (median growth inhibition), Rf/6a. The format is cell-based. The protocol: (§1) Cells. Primary human retinal microvascular endothelial cells (HRECs) were obtained from Cell Systems, Inc. (Kirkland, Wash.), while the Rf/6a macacque choroidal endothelial cell line was obtained from ATCC (Manassas, Va.). Cells were maintained as described (Basavarajappa et al., EMBO Mol Med 9:786-801 (2017)), re-ordered at least annually, and regularly assessed for mycoplasma contamination.
(§2) In vitro cell proliferation assay. Endothelial cell proliferation was measured as described previously (Basavarajappa et al., PLoS One 9:e95694 (2014); Basavarajappa et al., EMBO Mol Med 9:786-801 (2017)). Briefly, 2.5×10^3 cells were seeded in 100 μL of growth medium and plated in each well of 96-well clear-bottom black plates and incubated for 24 hours. APX2009, APX2014, or DMSO vehicle (DMSO final concentration=1%) was added, and the plates were incubated for 24-48 hours in 100 μL complete medium at 37° C. and 5% CO2. AlamarBlue reagent (11.1 μL) was added to each well of the plate and 4 hours later fluorescence readings were taken at excitation and emission wavelengths of 560 nm and 590 nm, respectively, using a Synergy H1 plate reader (BioTek, Winooski, Vt.). GI50 was calculated using GraphPad Prism v. 7.0.

Data set [2] concerns HRECs. The data set is described as follows: TUNEL apoptosis assay in HRECs. The format is cell-based, human. Particulars: anti-proliferative doses. The protocol: EdU incorporation, Ki-67 Staining and TUNEL. These assays were carried out as described previously (Basavarajappa et al., PLoS One 9:e95694 (2014); Basavarajappa et al., EMBO Mol Med 9:786-801 (2017)) with the exception of using chamber slides, not coverslips. Briefly, cells (30,000 per well) were seeded on 8-well chamber slides coated with attachment factors and allowed to attach overnight. Cells were treated with the indicated compound concentrations for 17 hours (overnight). To assay proliferation, cells were incubated with EdU in complete media for 8 hours at 37° C. Cells were then fixed in 4% paraformaldehyde for 20 minutes and permeabilized using 0.25% Triton X-100 prepared in PBS. Cells were incubated with a rabbit-specific monoclonal antibody against Ki-67 (D3B5) (#9129; Cell Signaling, Danvers, Mass.) (1:400) overnight at 4° C. Secondary antibody was Alexa Fluor goat anti-rabbit 488 (A11034; Invitrogen, Carlsbad, Calif.) with DAPI counter-stain for nuclear staining. Proliferating cells that incorporated EdU were detected using the Click-iT EdU Imaging kit (Invitrogen, Carlsbad, Calif.). […] The cells were imaged using a Zeiss AxioImager D2 microscope or an LSM 700 confocal microscope and the percentage of positive cells was counted on three low-power (for TUNEL) or high-power (for Ki-67 and EdU) fields per well using ImageJ software.

For data set [3], the system named is HRECs. The data set is described as follows: Matrigel tube formation assay, HRECs. It counts as cell-based, human. The conditions noted are these: mid nanomolar concentrations, vs control. How it is done: In vitro Matrigel tube formation assay. The ability of HRECs and Rf/6a cells to form tubes in vitro was monitored as described before (Basavarajappa et al., PLoS One 9:e95694 (2014); Basavarajappa et al., EMBO Mol Med 9:786-801 (2017)). Briefly, cells were treated with the indicated concentrations of APX2009 or APX2014 compounds or DMSO for 48 hours and then 1.5×10^4 cells in 100 μL of growth medium containing DMSO or APX compounds were added to each well of a 96-well plate that was pre-coated with 50 μL of Matrigel basement membrane (DMSO final concentration=1%). Digital photographs of each well at different time points were taken to measure the in vitro tube formation using the Angiogenesis Analyzer plugin in ImageJ software (v.1.48; http://image.bio.methods.free.fr/ImageJ/?Angiogenesis-Analyzer-for-ImageJ.html).

The target of the next data set is Ref-1 (Homo sapiens, UniProt P27695). Kind of data set: Electrophoretic mobility shift assay (redox EMSA), Ref-1-induced AP-1 DNA binding. The format is biochemical. The conditions noted are these: 30 min pre-incubation with purified Ref-1, read-out: IC50 for redox EMSA inhibition. The protocol: Electrophoretic mobility shift assays (EMSA). These assays were performed as previously described (Luo et al., Antioxid Redox Signal 10:18531867 (2008); Kelley et al., Antioxid Redox Signal 14:1387-1401 (2011); Su et al., Biochemistry 50:82-92 (2011); Luo et al., Biochemistry 51:695-705 (2012); Zhang et al., Biochemistry 52:2955-2966 (2013)). […] The EMSA assay was performed using the AP-1 target DNA sequence and AP-1 protein.

Data set [4] deals with HRECs. The data set is described as follows: Scratch wound cell migration assay, HRECs. It counts as cell-based, human. The protocol: (§3) In vitro cell migration assay. Endothelial cell migration was monitored as described before (Basavarajappa et al., PLoS One 9:e95694 (2014); Basavarajappa et al., EMBO Mol Med 9:786-801 (2017)). Briefly, HRECs and Rf/6a were grown until confluency in 12-well plates. Using a sterile 10-μL micropipette tip, a scratch wound was made across the center of each well and fresh complete media containing DMSO or different concentrations of APX2009 or APX2014 compounds were added to the wells (DMSO final concentration=1%). Wells were imaged via digital brightfield microscopy at different time points, and the number of migrated cells into the scratched area was manually counted.

The next data set relates to Rf/6a cells. The data set is described as follows: Scratch wound cell migration assay, Rf/6a. It counts as cell-based, macaque. The protocol:
as §3

Data set [5] has as its system laser-induced choroidal neovascularization.
Data set [6] concerns human retinal microvascular endothelial cells (HRECs). Kind of data set: In vitro cell proliferation assay (alamarBlue), HRECs. The format is cell-based. Particulars: HREC, read-out: GI50 (median growth inhibition), HRECs. How it is done: as §1, §2

pIC50: −log10 of the molar value.

Sequence of Ref-1 (P27695 whole entry): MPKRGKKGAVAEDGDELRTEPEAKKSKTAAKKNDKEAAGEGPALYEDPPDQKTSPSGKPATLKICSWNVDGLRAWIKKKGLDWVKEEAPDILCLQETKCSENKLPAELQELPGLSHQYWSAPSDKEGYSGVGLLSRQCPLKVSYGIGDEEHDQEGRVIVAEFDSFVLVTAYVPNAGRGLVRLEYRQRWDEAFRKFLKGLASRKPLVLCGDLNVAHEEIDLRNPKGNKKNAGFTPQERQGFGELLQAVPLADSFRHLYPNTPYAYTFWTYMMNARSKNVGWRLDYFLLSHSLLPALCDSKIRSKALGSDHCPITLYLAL

As for `CCC/C(=C\C1=C(OC)C(=O)c2ccccc2C1=O)C(=O)N(CC)CC` [APX2009, (2E)-2-[(3-methoxy-1,4-dioxo-1,4-dihydronaphthalen-2-yl)methylidene]-N,N-diethylpentanamide], the GI50 turned out to be 26 µM in data set [1] and 1.1 µM in data set [6]. Further, in the data set on HRECs [2], the “apoptosis by TUNEL” value is listed as “neither compound induced apoptosis”. In addition, the “ability to form tubes, HRECs” value in the data set with HRECs [3] is listed as “significantly reduced”. The pIC50 on Ref-1 was 6.35. Also, in the data set on HRECs [4], the “cell migration in scratch wound assay, HRECs” value is on record as “significantly inhibited”. In the data set with Rf/6a cells, the “cell migration in scratch wound assay, Rf/6a” value is recorded as “significantly inhibited”. The “fluorescein leakage in lesions (fluorescein angiography)” value in data set [5] (25 mg/kg i.p., Day 14) is recorded as “qualitatively less fluorescein leakage”. Also, in data set [5] (i.p. dosing in L-CNV mice), the “intraocular or systemic toxicity in vivo” value was “not observed obvious intraocular or systemic toxicity”. Further, the “effect on L-CNV” value in data set [5] (i.p., 12.5 mg/kg twice daily for two weeks) is “did not reduce L-CNV”. In data set [5], the “L-CNV on systemic administration (summary statement)” value is “can attenuate L-CNV”.

For `CCC/C(=C\C1=C(OC)C(=O)c2ccccc2C1=O)C(=O)NOC` [APX2014, (2E)-2-[(3-methoxy-1,4-dioxo-1,4-dihydronapthalen-2-yl)methylidene]-N-methoxypentanamide], the GI50 in data set [1] was determined as 5 µM; in data set [6], 0.11 µM. The “apoptosis by TUNEL” value in the data set with HRECs [2] is recorded as “neither compound induced apoptosis”. For the same molecule, the “ability to form tubes, HRECs” value in the data set on HRECs [3] is reported as “significantly reduced”. Moreover, the pIC50 at Ref-1 is 6.70. Also, the “cell migration in scratch wound assay, HRECs” value in the data set with HRECs [4] is on record as “significantly inhibited”. In addition, the “cell migration in scratch wound assay, Rf/6a” value in the data set with Rf/6a cells is recorded as “significantly inhibited”. The “L-CNV on systemic administration (summary statement)” value in data set [5] is listed as “can attenuate L-CNV”.
